As a reminder, the viability is a read-out of living cells in per cent, often relative to untreated cells.

The source of these data is publication PMC6235670, “An mTOR Signaling Modulator Suppressed Heterotopic Ossification of Fibrodysplasia Ossificans Progressiva” (Stem Cell Reports, 2018).

Data set [1] is described as follows: AlamarBlue viability assay in ATDC5/FOP-ACVR1. To be noted: mouse. Here is the method: Generation of ATDC5 stably expressing ACVR1. WT - or FOP-ACVR1 was inserted into doxycycline (Dox)- […]
(KW111/WT-ACVR1 or KW111/FOP-ACVR1). KW111/WT-ACVR1 or KW111/FOP-ACVR1 and PBaseII […]
FuGeneHD® (Promega) according to the manufacturer’s protocol, and the neomycin- resistant population (500 µg/mL) was selected. Further selection was performed by selecting a mCherry high positive population (< 5%) after six hours of Dox treatment, sorting it with fluorescent-activated cell sorting (FACS) using AriaII (BD) according to the manufacturer’s protocol, and designating it as ATDC5/WT-ACVR1 or ATDC5/FOP-ACVR1.
KW111 included PB, active transposable PB elements; TRE-mCMVP, Tetracycline Response Element and a minimal CMV promoter; rtTA, reverse tetracycline-controlled transactivator. PBaseII was an expression plasmid vector containing the PB transposase cDNA with optimized codon usage to human under the control […]
HTS campaign and follow-up screens. ATDC5/FOP-ACVR1 cells were plated in 96-well white plates (2,000 cells/well/40 µ L, Corning) in DMEM/F-12 supplemented with 5% (v/v) FBS. […]
37 °C under 5% CO2. After 3 days incubation, Alkaline Phosphatase activity (ALP) or AlamarBlue activity was measured using Amplite™ Colorimetric Alkaline Phosphatase Assay Kit (AAT Bioquest) or alamarBlue® Cell Viability Reagent (Thermo Fisher Scientific) according to the manufacturer’s protocol, respectively. T h e […]
was measured on POWERSCAN4 (DS Pharma Biomedical) or EnVision® Multilabel Reader (PerkinElmer).
Inhibitory effects of the screened compounds are given as percent inhibition, which was calculated using the following equation: (1-([Abs of compound] - [Abs of Min])/([Abs of Max] - [Abs of Min]))× 100, where [Abs of Max] and [Abs of Min] are the mean Abs of DMSO control and 1 µM DMH-1, respectively. The Z’ factor, which is widely used as a measure of the assay quality of each plate, was calculated using the following equation: Z’ factor = 1 - 3 × ([SD of Max] + [SD of Min])/([Abs of Max] - [Abs of Min]) (SI Appendix, Fig.
The S/B (signal-to-background) ratio was calculated using the following equation: ([Abs of Max]/[Abs of Min]) (SI Appendix, Fig. S3B).
Using ATDC5/FOP-ACVR1 cells, we performed a first screening (n=2; test compounds = 1 µM, Fig. […]
In general terms: The colour change of resazurin is a common sign of viable cells or microbes.

In data set [2] the test system is BMP-7-induced HO model mice (C57BL/6). The data set is described as follows: BMP-7-induced HO model mice. The source says:
MTOR s604 […]tt […]at […]
For X- ray images, mice were anesthetized with isoflurane (5% for induction, 2-3% for maintenance, Abbvie), immobilized and X-rayed using µFX-1000 (Fujifilm) or DX-50 (Faxitron Bioptics). µCT images were scanned using X-ray CT systems (inspeXio SMX-100CT, Shimadzu) and analyzed with TRI/3D-BON software (Ratoc System Engineering) according to the manufacturer's instructions. Four weeks after injection, the injected sites were harvested, fixed with 4% paraformaldehyde for 24 h, embedded in paraffin, and sectioned and stained […]
BMP-7-induced HO model mice. BMP -7 (2 µ g/mouse) was injected into the right gastrocnemius muscle of C57BL/6NJcl mice (6-8 weeks, male, CLEA Japan), and compounds were administered once a day, five times a week (intraperitoneal administration). Mice were analyzed 2 weeks after injection. […]

The test system of another data set is FOP-iMSCs. The data set is described as follows: 2D chondrogenic induction of FOP-iMSCs with activin A (GAG, Alcian blue). The class given is cell-based, human.
The subject of data set [3] is TGF-β signaling (CAGA-Luc). The data set is described as follows: CAGA-Luc reporter assay in FOP-iMSCs. To be noted: activin A and compounds for 3 hr. It counts as cell-based, human. The protocol:
FOP-iMSCs transiently transfected with BRE-Luc (A) or CAGA-Luc (B) with CMV-Renilla were stimulated with activin A and compounds for 16 hr (A) or 3 hr (B). […] One day after siRNA transfection, chondrogenic induction with activin A was initiated, and after 7 days the cells were harvested. […] FOP-iMSCs cultured with 10% FBS were treated with 100 nM rapamycin (Rapa) or TAK 165 (TAK) for 2 hr, and the cells were harvested. […] 1 μM TAK, 1 μM CP (CP-724714, another selective ERBB2 inhibitor), or 10 nM Rapa were applied in the experiments.
(In general: In a reporter assay the amount or activity of a reporter protein is the signal.)

With `FC(F)(F)c1ccc(/C=C/c2nc(COc3ccc(CCCCn4ccnn4)cc3)co2)cc1` [TAK 165, mubritinib], in data set [1], the viability at 3 days, 10 µM was 117%. Further, the “body weight change compared to vehicle group” value in data set [2] (i.p. for 2 weeks, n=5) was “No significant differences”. For the same molecule, in data set [2] (i.p. once daily 5 times a week for 2 weeks), the “BMP-7-induced HO (heterotopic bone volume)” value is “suppressed”. Moreover, the “# of HO (> 20 mm3): number of mice harboring HO” value in data set [2] (i.p. once daily 5 times a week for 2 weeks, N = 5) is recorded as 1/5. For the same molecule, in the data set on FOP-iMSCs (1 μM, activin A, 7 days), the “inhibition of glycosaminoglycan (GAG) production” value was “potent inhibition”. For the same molecule, the “suppression of chondrogenic induction (GAG), dose dependence” value in the data set with FOP-iMSCs (activin A, 7 days) was “dose-dependent”. The Alcian blue staining entry with FOP-iMSCs (compared with other HTS hits) is given as “obviously different effects”. Also, the “CAGA-Luc (TGF-β-responsive luciferase reporter)” value in data set [3] is reported as “did not affect”.
